System: HCV Huh-luc/neo-ET replicon cells
Assay: Luciferase-Based HCV Replicon Assay (EC50 (1b))
Assay type: cell-based
Details: Hepatitis C virus, 72 hours exposure, luciferase activity
Method: Luciferase-Based HCV Replicon Assay Protocol (EC50 (1b))
The cell culture component of the assay was performed essentially as described by Bartenschlager et al., Hepatology 2002, 35, 694-703, wherein exponentially growing HCV Huh-luc/neo-ET replicon cells were seeded at 6×10^3 cells/well in 96 well assay plate. 24 hours later the cells were treated with various concentrations of compound in triplicate. After 72 hours exposure to the compound, the luciferase activity in the wells was determined using Bright-Glo reagent (Promega, Madison, Wis.) with a luminometer (Wallac 1420 Multilabel HTS Counter Victor 2). The background control was replicon cells treated with 100 nM BILN-2061, an inhibitor of the HCV protease. % Inhibition was determined for each compound concentration in relation to the negative (no compound) control to calculate the EC50 (1b).

Structure (SMILES)	EC50 [nM]
COc1ccc(CN2C(=O)C(C3=NS(=O)(=O)c4c(CNS(C)(=O)=O)csc4N3)=C(O)C3CCCCCC32)c(OC)c1 (racemic) [Example 79, (rac-cis)-N-{3-[1-(2,4-Dimethoxy-benzyl)-4-hydroxy-2-oxo-2,4a,5,6,7,8,9,9a-octahydro-1H-cyclohepta[b]pyridin-3-yl]-1,1-dioxo-1,4-dihydro-1λ^6-thieno[2,3-e][1,2,4]thiadiazin-7-ylmethyl}-methanesulfonamide]	> 1000
CS(=O)(=O)NCc1csc2c1S(=O)(=O)N=C(C1=C(O)C3C4CCC(O4)C3NC1=O)N2 (racemic) [Example 83, (rac-di-exo)-N-[3-(6-Hydroxy-4-oxo-11-oxa-3-aza-tricyclo[6.2.1.0^2,7]undec-5-en-5-yl)-1,1-dioxo-1,4-dihydro-1λ^6-thieno[2,3-e][1,2,4]thiadiazin-7-ylmethyl]-methanesulfonamide]	> 1000
CS(=O)(=O)NCc1csc2c1S(=O)(=O)N=C(C1=C(O)C3C4C=CC(C4)C3NC1=O)N2 (racemic) [Example 84, (rac-di-exo)-N-[3-(6-Hydroxy-4-oxo-3-aza-tricyclo[6.2.1.0^2,7]undeca-5,9-dien-5-yl)-1,1-dioxo-1,4-dihydro-1λ^6-thieno[2,3-e][1,2,4]thiadiazin-7-ylmethyl]-methanesulfonamide]	> 1000
CS(=O)(=O)NCc1csc2c1S(=O)(=O)N=C(C1=C(O)C3CCCCC3NC1=O)N2 (racemic) [Example 86, (rac-cis)-N-[3-(4-Hydroxy-2-oxo-1,2,4a,5,6,7,8,8a-octahydro-quinolin-3-yl)-1,1-dioxo-1,4-dihydro-1λ^6-thieno[2,3-e][1,2,4]thiadiazin-7-ylmethyl]-methanesulfonamide]	> 1000
CS(=O)(=O)NCc1csc2c1S(=O)(=O)N=C(C1=C(O)C3CCCCCC3NC1=O)N2 (racemic) [Example 87, (rac-cis)-N-[3-(4-Hydroxy-2-oxo-2,4a,5,6,7,8,9,9a-octahydro-1H-cyclohepta[b]pyridin-3-yl)-1,1-dioxo-1,4-dihydro-1λ^6-thieno[2,3-e][1,2,4]thiadiazin-7-ylmethyl]-methanesulfonamide]	> 1000
CS(=O)(=O)NCc1csc2c1S(=O)(=O)N=C(C1=C(O)C3C4CCC(O4)C3N(Cc3ccc(F)cc3)C1=O)N2 (racemic) [Example 90, (rac-di-exo)-N-{3-[3-(4-Fluoro-benzyl)-6-hydroxy-4-oxo-11-oxa-3-aza-tricyclo[6.2.1.0^2,7]undec-5-en-5-yl]-1,1-dioxo-1,4-dihydro-1λ^6-thieno[2,3-e][1,2,4]thiadiazin-7-ylmethyl}-methanesulfonamide]	5 to 20
CS(=O)(=O)NCc1csc2c1S(=O)(=O)N=C(C1=C(O)C3CCCCC3N(C3CCCCC3)C1=O)N2 (racemic) [Example 100, (rac-cis)-N-[3-(1-Cyclohexyl-4-hydroxy-2-oxo-1,2,4a,5,6,7,8,8a-octahydro-quinolin-3-yl)-1,1-dioxo-1,4-dihydro-1λ^6-thieno[2,3-e][1,2,4]thiadiazin-7-ylmethyl]-methanesulfonamide]	100 to 1000
CS(=O)(=O)NCc1csc2c1S(=O)(=O)N=C(C1=C(O)C3CCCCC3N(CC3CCCCC3)C1=O)N2 (racemic) [Example 104, (rac-cis)-N-[3-(1-Cyclohexylmethyl-4-hydroxy-2-oxo-1,2,4a,5,6,7,8,8a-octahydro-quinolin-3-yl)-1,1-dioxo-1,4-dihydro-1λ^6-thieno[2,3-e][1,2,4]thiadiazin-7-ylmethyl]-methanesulfonamide]	100 to 1000
CS(=O)(=O)NCc1csc2c1S(=O)(=O)N=C(C1=C(O)C3CCCCCC3N(CC3CCCCC3)C1=O)N2 (racemic) [Example 105, (rac-cis)-N-[3-(1-Cyclohexylmethyl-4-hydroxy-2-oxo-2,4a,5,6,7,8,9,9a-octahydro-1H-cyclohepta[b]pyridin-3-yl)-1,1-dioxo-1,4-dihydro-1λ^6-thieno[2,3-e][1,2,4]thiadiazin-7-ylmethyl]-methanesulfonamide]	100 to 1000
CS(=O)(=O)NCc1csc2c1S(=O)(=O)N=C(C1=C(O)C3CCCCC3N(Cc3ccc(F)cc3)C1=O)N2 (racemic) [Example 116, (rac-cis)-N-{3-[1-(4-Fluoro-benzyl)-4-hydroxy-2-oxo-1,2,4a,5,6,7,8,8a-octahydro-quinolin-3-yl]-1,1-dioxo-1,4-dihydro-1λ^6-thieno[2,3-e][1,2,4]thiadiazin-7-ylmethyl}-methanesulfonamide]	20 to 100
CS(=O)(=O)NCc1csc2c1S(=O)(=O)N=C(C1=C(O)C3CCCCC3N(Cc3ccc(F)cc3Cl)C1=O)N2 (racemic) [Example 117, (rac-cis)-N-{3-[1-(2-Chloro-4-fluoro-benzyl)-4-hydroxy-2-oxo-1,2,4a,5,6,7,8,8a-octahydro-quinolin-3-yl]-1,1-dioxo-1,4-dihydro-1λ^6-thieno[2,3-e][1,2,4]thiadiazin-7-ylmethyl}-methanesulfonamide]	100 to 1000
CS(=O)(=O)NCc1csc2c1S(=O)(=O)N=C(C1=C(O)C3CCCCC3N(Cc3ccc(F)cc3F)C1=O)N2 (racemic) [Example 118, (rac-cis)-N-{3-[1-(2,4-Difluoro-benzyl)-4-hydroxy-2-oxo-1,2,4a,5,6,7,8,8a-octahydro-quinolin-3-yl]-1,1-dioxo-1,4-dihydro-1λ^6-thieno[2,3-e][1,2,4]thiadiazin-7-ylmethyl}-methanesulfonamide]	100 to 1000
CS(=O)(=O)NCc1csc2c1S(=O)(=O)N=C(C1=C(O)C3CCCCC3N(Cc3ccc(F)c(Cl)c3)C1=O)N2 (racemic) [Example 119, (rac-cis)-N-{3-[1-(3-Chloro-4-fluoro-benzyl)-4-hydroxy-2-oxo-1,2,4a,5,6,7,8,8a-octahydro-quinolin-3-yl]-1,1-dioxo-1,4-dihydro-1λ^6-thieno[2,3-e][1,2,4]thiadiazin-7-ylmethyl}-methanesulfonamide]	100 to 1000
CS(=O)(=O)NCc1csc2c1S(=O)(=O)N=C(C1=C(O)C3CCCCCC3N(Cc3ccc(F)cc3)C1=O)N2 (racemic) [Example 120, (rac-cis)-N-{3-[1-(4-Fluoro-benzyl)-4-hydroxy-2-oxo-2,4a,5,6,7,8,9,9a-octahydro-1H-cyclohepta[b]pyridin-3-yl]-1,1-dioxo-1,4-dihydro-1λ^6-thieno[2,3-e][1,2,4]thiadiazin-7-ylmethyl}-methanesulfonamide]	20 to 100
CS(=O)(=O)NCc1csc2c1S(=O)(=O)N=C(C1=C(O)C3CCCCCC3N(Cc3ccc(F)cc3Cl)C1=O)N2 (racemic) [Example 121, (rac-cis)-N-{3-[1-(2-Chloro-4-fluoro-benzyl)-4-hydroxy-2-oxo-2,4a,5,6,7,8,9,9a-octahydro-1H-cyclohepta[b]pyridin-3-yl]-1,1-dioxo-1,4-dihydro-1λ^6-thieno[2,3-e][1,2,4]thiadiazin-7-ylmethyl}-methanesulfonamide]	> 1000
CS(=O)(=O)NCc1csc2c1S(=O)(=O)N=C(C1=C(O)C3CCCCCC3N(Cc3ccc(F)cc3F)C1=O)N2 (racemic) [Example 122, (rac-cis)-N-{3-[1-(2,4-Difluoro-benzyl)-4-hydroxy-2-oxo-2,4a,5,6,7,8,9,9a-octahydro-1H-cyclohepta[b]pyridin-3-yl]-1,1-dioxo-1,4-dihydro-1λ^6-thieno[2,3-e][1,2,4]thiadiazin-7-ylmethyl}-methanesulfonamide]	> 1000
CS(=O)(=O)NCc1csc2c1S(=O)(=O)N=C(C1=C(O)C3CCCCCC3N(Cc3ccc(F)c(Cl)c3)C1=O)N2 (racemic) [Example 123, (rac-cis)-N-{3-[1-(3-Chloro-4-fluoro-benzyl)-4-hydroxy-2-oxo-2,4a,5,6,7,8,9,9a-octahydro-1H-cyclohepta[b]pyridin-3-yl]-1,1-dioxo-1,4-dihydro-1λ^6-thieno[2,3-e][1,2,4]thiadiazin-7-ylmethyl}-methanesulfonamide]	100 to 1000
CS(=O)(=O)NCc1csc2c1S(=O)(=O)N=C(C1=C(O)C3CCCCC3N(Cc3ccccc3)C1=O)N2 (racemic) [Example 130, (rac-cis)-N-[3-(1-Benzyl-4-hydroxy-2-oxo-1,2,4a,5,6,7,8,8a-octahydro-quinolin-3-yl)-1,1-dioxo-1,4-dihydro-1λ^6-thieno[2,3-e][1,2,4]thiadiazin-7-ylmethyl]-methanesulfonamide]	100 to 1000
Cc1cc(CN2C(=O)C(C3=NS(=O)(=O)c4c(CNS(C)(=O)=O)csc4N3)=C(O)C3CCCCC32)ccc1F (racemic) [Example 131, (rac-cis)-N-{3-[1-(4-Fluoro-3-methyl-benzyl)-4-hydroxy-2-oxo-1,2,4a,5,6,7,8,8a-octahydro-quinolin-3-yl]-1,1-dioxo-1,4-dihydro-1λ^6-thieno[2,3-e][1,2,4]thiadiazin-7-ylmethyl}-methanesulfonamide]	100 to 1000
CC(C)CCN1C(=O)C(C2=NS(=O)(=O)c3c(CNS(C)(=O)=O)csc3N2)=C(O)C2CCCCC21 (racemic) [Example 132, (rac-cis)-N-{3-[4-Hydroxy-1-(3-methyl-butyl)-2-oxo-1,2,4a,5,6,7,8,8a-octahydro-quinolin-3-yl]-1,1-dioxo-1,4-dihydro-1λ^6-thieno[2,3-e][1,2,4]thiadiazin-7-ylmethyl}-methanesulfonamide]	20 to 100
CC(C)(C)CCN1C(=O)C(C2=NS(=O)(=O)c3c(CNS(C)(=O)=O)csc3N2)=C(O)C2CCCCC21 (racemic) [Example 133, (rac-cis)-N-{3-[1-(3,3-Dimethyl-butyl)-4-hydroxy-2-oxo-1,2,4a,5,6,7,8,8a-octahydro-quinolin-3-yl]-1,1-dioxo-1,4-dihydro-1λ^6-thieno[2,3-e][1,2,4]thiadiazin-7-ylmethyl}-methanesulfonamide]	20 to 100

Reference: patent US8222404B2, “[1,2,4]Thiadiazin-3-yl acetic acid compound and methods of making the acetic acid compound” (Anadys Pharmaceuticals, Inc., priority 2008, dated 2012)
